Laboratory results taken from patent US4293489A, “Derivatives of A-30912A nucleus” (Eli Lilly and Company, priority 1980, dated 1981).
Read-outs that look alike come from different tables or passages of the source. Starred links: 1 amine or outer side, 2 acyl side, 3 side chain; linkers in the order of their positions; H or OH if unused. Positions of bridges follow the written chain, without caps; N, C: chain ends. Non-standard residues stand in square brackets, D forms with d. Residues, ends and D or L forms follow the SMILES beside them. *: point of attachment. Orn(4R-OH,5R-OH) = O=C([C@H](C[C@@H](O)[C@@H](O)N[*:3])N[*:1])[*:2]; hTyr(3S-OH,4S-OH) = N[C@H](C(=O)O)[C@H](O)[C@@H](O)c1ccc(O)cc1; Pro(3S-OH,4S-Me) = C[C@H]1CN[C@H](C(=O)O)[C@H]1O; X2 = CCCCCCCCCCCCCCS(=O)(=O)c1ccc(C(=O)*)cc1; X5 = CCCCCCCCCCCCS(=O)(=O)c1ccc(C(=O)*)cc1; X20 = CCCCCCCCCCCCCCOc1ccc(C(=O)*)cc1; X3 = CCCCCCCCCCCCCCSc1ccc(C(=O)*)cc1; X1 = CCCCCCCCCCCCSc1ccc(C(=O)*)cc1; Hyp = O=C(O)[C@@H]1C[C@@H](O)CN1; X6 = CCCCCCCCCCSc1ccc(C(=O)*)cc1; X13 = CCCCCCCCOc1cccc(C(=O)*)c1; X7 = CCCCCCCCSc1ccc(C(=O)*)cc1

What was measured:
Candida albicans A-26 [1] = assay: Therapeutic activity against Candida albicans A-26 infection in X-irradiated mice, lowest active dose; type: in vivo; settings: A26, light or radiation study, sc
Protocol: (§1) The results of in vivo tests to evaluate the effectiveness of the compounds of Examples 3 and 4 against an infection caused by Candida albicans A-26 in mice are given in Table 13, where activity is measured by the ED50 value (the dose in mg/kg. required to cure 50% of the test animals). In a separate test, the results of which are also summarized in Table 13, activity is indicated by the lowest dose at which a significant anti-fungal effect is observed. In this test, groups of male albino mice (specific pathogen free), weighing 18 to 20 grams, are infected intravenously with Candida albicans A-26. The animals are X-irradiated 24 hours prior to infection at about 50 roentgens per minute for 8 minutes (400 total dose) to reduce immune responses to the infecting organism. At 0, 4, and 24 hours post infection each group of mice is given graded doses subcutaneously of the test compound as a suspension in 33% polyethylene glycol (PEG)-water. The day of death for each animal is recorded.
(§2) *Dosage Schedules: A. = 40, 20, 15 and 10 mg/kg; Dosages given 0, 4, and
(§3) 24 hours post injection as suspension of test compound in 30% PEGH2
(§4) O. Number of mice receiving test compounds at each dosage level: 6 mice
(§5) per group. Number of mice in control (untreated) group: 10 mice per group

Candida albicans A-26 [2] = assay: Therapeutic activity against Candida albicans A-26 infection in mice, ED50; type: in vivo; settings: Candida albicans, A26, sc, doses 0, 4 and 24 hours post infection, increase in survival time vs control, Reed-Muench, read-out: ED50
Protocol: as §1, §2, §3, §4, §5
**As measured by increase in survival time of treated animals versus
control, calculated by method of Reed v Mueuch, American J. Hygiene, 27,

[3] = read-out: Lowest Active Dose, X-irradiated mice, subcutaneous at 0, 4 and 24 hours post infection, survival
[4] = X-irradiated mice, subcutaneous at 0, 4 and 24 hours post infection, survival, read-out: Lowest Active Dose

SMILES | minimal effective dose (Candida albicans A-26 [1]; [3]) | ED50 (Candida albicans A-26 [2]) | minimal effective dose (Candida albicans A-26 [1]; [4])
CCCCCCCCCCCCCCOc1ccc(C(=O)N[C@H]2C[C@@H](O)[C@@H](O)NC(=O)[C@@H]3[C@@H](O)[C@@H](C)CN3C(=O)[C@H]([C@@H](C)O)NC(=O)[C@H]([C@H](O)[C@@H](O)c3ccc(O)cc3)NC(=O)[C@@H]3C[C@@H](O)CN3C(=O)[C@H]([C@@H](C)O)NC2=O)cc1 [drawing 154] (X20-[Orn(4R-OH,5R-OH)]T[Hyp][hTyr(3S-OH,4S-OH)]T[Pro(3S-OH,4S-Me)]; lactam 1-C) | 5 mg/kg | 3 mg/kg | 
CCCCCCCCSc1ccc(C(=O)N[C@H]2C[C@@H](O)[C@@H](O)NC(=O)[C@@H]3[C@@H](O)[C@@H](C)CN3C(=O)[C@H]([C@@H](C)O)NC(=O)[C@H]([C@H](O)[C@@H](O)c3ccc(O)cc3)NC(=O)[C@@H]3C[C@@H](O)CN3C(=O)[C@H]([C@@H](C)O)NC2=O)cc1 [drawing 155] (X7-[Orn(4R-OH,5R-OH)]T[Hyp][hTyr(3S-OH,4S-OH)]T[Pro(3S-OH,4S-Me)]; lactam 1-C) | 10 mg/kg | 37.4 mg/kg | 
CCCCCCCCCCSc1ccc(C(=O)N[C@H]2C[C@@H](O)[C@@H](O)NC(=O)[C@@H]3[C@@H](O)[C@@H](C)CN3C(=O)[C@H]([C@@H](C)O)NC(=O)[C@H]([C@H](O)[C@@H](O)c3ccc(O)cc3)NC(=O)[C@@H]3C[C@@H](O)CN3C(=O)[C@H]([C@@H](C)O)NC2=O)cc1 [drawing 156] (X6-[Orn(4R-OH,5R-OH)]T[Hyp][hTyr(3S-OH,4S-OH)]T[Pro(3S-OH,4S-Me)]; lactam 1-C) |  | 28 mg/kg | 20 mg/kg
CCCCCCCCCCCCSc1ccc(C(=O)N[C@H]2C[C@@H](O)[C@@H](O)NC(=O)[C@@H]3[C@@H](O)[C@@H](C)CN3C(=O)[C@H]([C@@H](C)O)NC(=O)[C@H]([C@H](O)[C@@H](O)c3ccc(O)cc3)NC(=O)[C@@H]3C[C@@H](O)CN3C(=O)[C@H]([C@@H](C)O)NC2=O)cc1 [drawing 157] (X1-[Orn(4R-OH,5R-OH)]T[Hyp][hTyr(3S-OH,4S-OH)]T[Pro(3S-OH,4S-Me)]; lactam 1-C) |  | 2 mg/kg | < 1.25 mg/kg
CCCCCCCCCCCCCCSc1ccc(C(=O)N[C@H]2C[C@@H](O)[C@@H](O)NC(=O)[C@@H]3[C@@H](O)[C@@H](C)CN3C(=O)[C@H]([C@@H](C)O)NC(=O)[C@H]([C@H](O)[C@@H](O)c3ccc(O)cc3)NC(=O)[C@@H]3C[C@@H](O)CN3C(=O)[C@H]([C@@H](C)O)NC2=O)cc1 [drawing 158] (X3-[Orn(4R-OH,5R-OH)]T[Hyp][hTyr(3S-OH,4S-OH)]T[Pro(3S-OH,4S-Me)]; lactam 1-C) |  | 20 mg/kg | 2.5 mg/kg
CCCCCCCCCCCCS(=O)(=O)c1ccc(C(=O)N[C@H]2C[C@@H](O)[C@@H](O)NC(=O)[C@@H]3[C@@H](O)[C@@H](C)CN3C(=O)[C@H]([C@@H](C)O)NC(=O)[C@H]([C@H](O)[C@@H](O)c3ccc(O)cc3)NC(=O)[C@@H]3C[C@@H](O)CN3C(=O)[C@H]([C@@H](C)O)NC2=O)cc1 [drawing 161] (X5-[Orn(4R-OH,5R-OH)]T[Hyp][hTyr(3S-OH,4S-OH)]T[Pro(3S-OH,4S-Me)]; lactam 1-C) |  | 53 mg/kg | 20 mg/kg
CCCCCCCCCCCCCCS(=O)(=O)c1ccc(C(=O)N[C@H]2C[C@@H](O)[C@@H](O)NC(=O)[C@@H]3[C@@H](O)[C@@H](C)CN3C(=O)[C@H]([C@@H](C)O)NC(=O)[C@H]([C@H](O)[C@@H](O)c3ccc(O)cc3)NC(=O)[C@@H]3C[C@@H](O)CN3C(=O)[C@H]([C@@H](C)O)NC2=O)cc1 [drawing 162] (X2-[Orn(4R-OH,5R-OH)]T[Hyp][hTyr(3S-OH,4S-OH)]T[Pro(3S-OH,4S-Me)]; lactam 1-C) | 5 mg/kg | 11 mg/kg | 
CCCCCCCCOc1cccc(C(=O)N[C@H]2C[C@@H](O)[C@@H](O)NC(=O)[C@@H]3[C@@H](O)[C@@H](C)CN3C(=O)[C@H]([C@@H](C)O)NC(=O)[C@H]([C@H](O)[C@@H](O)c3ccc(O)cc3)NC(=O)[C@@H]3C[C@@H](O)CN3C(=O)[C@H]([C@@H](C)O)NC2=O)c1 [drawing 163] (X13-[Orn(4R-OH,5R-OH)]T[Hyp][hTyr(3S-OH,4S-OH)]T[Pro(3S-OH,4S-Me)]; lactam 1-C) |  | > 50 mg/kg | 40 mg/kg
